Earlier results in patent US20110287109A1 (MAX INTERNATIONAL, LLC, priority 2010, published 2011).

Legend:
glutathione levels = conditions: mice, 8 mmol/kg i.p.
[1] = system: mice exposed to cyclophosphamide; conditions: 8 mmol/kg
[2] = system: acetaminophen hepatic and renal toxicity; conditions: mice, 2 g/kg
[3] = system: irradiation-induced bowel injury; conditions: mice, 1 g/kg
[4] = administered directly to humans
exercise capacity = conditions: healthy humans, orally, 8-10 g per day by an adult
ATP levels = conditions: dogs subjected to ischemia (heart attack model), about 3 g/day for at least 5 days

Row | Compound | increase of glutathione level in heart (glutathione levels; heart) | increase of glutathione level in muscle tissue (glutathione levels; muscle tissue) | delivery of protective amounts of cysteine [1] | protection against acetaminophen hepatic and renal toxicity [2] | protection against irradiation-induced bowel injury [3] | toxicity over wide dosage ranges [4] | exercise capacity (exercise capacity) | ATP levels (ATP levels)
1 | O=C(O)[C@@H]1CSC(C(O)C(O)C(O)CO)N1 (stereo partly drawn) [RibCys, 2(R,S)-D-ribo-(1′,2′,3′,4′-tetrahydroxybutyl)thiazolidine-4(R)-carboxylic acid] | 1.5 × | 2.5 × | deliver effective protective amounts of cysteine | protect mice against acetaminophen hepatic and renal toxicity | protect mice against irradiation-induced bowel injury |  |  | 
2 | O=C[C@H](O)[C@H](O)[C@H](O)CO [ribose] |  |  |  |  |  | essentially non-toxic | increase exercise capacity | effectively restored and maintained ATP levels
